We go through 2 compounds from patent US11840518B2, “Use of bromophenol-pyrazoline compounds for the treatment of feline coronavirus diseases” (Shandong Linghai Biotechnology Co., Ltd., priority 2021, dated 2023).

The subject of assay [1] is FIPV. The experiment in a line: Clinical trial in cats infected with the FIPV (feline infectious peritonitis). The conditions noted are these: for Moderate response: 4-week treatment. It is filed as in vivo. An excerpt: Serology or morphology cannot distinguish feline enteric coronavirus from the FIPV. According to the history, epidemiology, clinical symptoms, laboratory diagnosis, imaging examination and histopathological examination, the cats were diagnosed comprehensively after other diseases were ruled out.
Thirty cats infected with the FIPV were divided into a wet FIP group (n=17) and a dry FIP group (n=13) according to presence of significant pleural effusion, ascites, dyspnea and other symptoms (fibrous pleurisy and peritonitis). The wet FIP group (17 cats) was randomly divided into a control group (3 cats), a GS-441524 group (6 cats) and a compound 5 group (8 cats). The dry FIP group (13 cats) was randomly divided into a control group (2 cats), a GS-441524 group (5 cats) and a compound 5 group (6 cats).
For the wet and dry GS-441524 groups: 4.0 mg/kg was administered subcutaneously every 24 hours; and for the wet and dry compound 5 groups: 3 mg/kg was orally administered after dissolved in glucose solution once a day.
Rectal temperature was measured at least once a day, and body weight, respiration, appetite and activity were observed. Special people were arranged to feed the cats, and foodware was washed and disinfected every day. The cats with good appetite were fed with conventional cat food, and high protein pet food can was used as nutritional supplement. The cats with poor appetite were subject to nasal feeding and intravenous injection for nutritional supplement to ensure nutrition intake of the experimental cats. At the same time, defecation and urination were also observed in terms of volume and shape. The cats were examined for blood routine indexes, serum biochemical indicators and abdominal B ultrasound condition according to actual situation.
Cases with good appetite, body weight, respiration, body temperature and other body conditions at the completion of 4-week treatment, and examined for the blood routine indexes and serum biochemical indicators twice (more than 1 week apart) were defined as effective.

Assay [2] has as its system FIPV wild strain in CRFK cells. Description: Interference with FIPV replication in infected CRFK cells (qRT-PCR of vRNA in supernatant). The class given is cell-based, feline infectious peritonitis virus. To be noted: 5 μM, CRFK cells infected with wild-type FIPV, 24 hours; FIG. 2. As for the experimental part: To further confirm in vitro enzymatic inhibition results, the inventors evaluated whether the bromophenol-pyrazoline compounds could prevent FIPV replication in clinical wild-type FIPV-infected Crandell-Rees feline kidney (CRFK) cells.
The CRFK cells were cultured with DMEM containing 8% fetal bovine serum in a cell incubator with 5% CO2 at 37° C. When the cells grew to a density of about 80%, the cells were pretreated with 5 μM bromophenol-pyrazoline compounds to be tested for 1 hour, and then an FIPV wild strain (MOI=0.1) was inoculated into the CRFK cells. The CRFK cells inoculated with virus but without the compounds were set up as controls. After 24 hours, a cell supernatant was collected, and vRNA in the supernatant was subject to qRT-PCR analysis.

Assay [3] relates to FIP. To be noted: 4 weeks of continuous treatment at 4 mg/kg; cited from earlier work.
[4] abbreviates: dry FIP group, number of cats (GS-441524 group n=5, 4.0 mg/kg s.c.; compound 5 group n=6, 3 mg/kg oral).
Where [5] appears, read: dry FIP group, number of cats (GS-441524 group n=5; compound 5 group n=6).
Where [6] appears, read: wet FIP group, number of cats (GS-441524 group n=6, 4.0 mg/kg s.c.; compound 5 group n=8, 3 mg/kg oral).
[7] abbreviates: wet FIP group, number of cats (GS-441524 group n=6; compound 5 group n=8).

For `COc1ccc(C2=NN(C(N)=S)C(c3cc(O)c(O)c(Br)c3Br)C2)cc1` (stereo not drawn) [Compound 5], in assay [1] (Compound 5 treatment group), the “time within which ocular lesions in some cats began to resolve significantly” value is at most 48 h; the “treatment time after which normal cat food was given” value came out at 1 days; the “treatment time after which the body temperature returned to normal and the body weight increased” value came out at 7 days. Further, the “comparison with the positive drug GS-441524 group” value in assay [1] (compound 5 3 mg/kg oral once a day vs GS-441524 4.0 mg/kg s.c. every 24 hours) is “faster onset of action, fewer deaths and higher response rate”. In assay [1] (dry FIP group), the “Clinical manifestations: time within which ocular lesions in some cats began to resolve significantly” value was 48 hours, and the; the “Clinical manifestations: treatment time after which normal/ordinary cat food was given” value is “given after 1 day of days”; the “Clinical manifestations: treatment time after which the intake returned to normal” value was “normal after 3 days”. In assay [1] (setting [4]), this compound came in with a Death of 0. Moreover, the Moderate response in assay [1] (setting [5]) was determined as 5. In assay [1] (wet FIP group), the “Clinical manifestations: treatment time after which ascites and dyspnea basically recovered” value is listed as “after 10 days of”; the “Clinical manifestations: treatment time after which the normal cat food was given” value is given as “After 1 day of treat-”. Besides, in assay [1] (setting [6]), the Death was found to be 1. In assay [1] (setting [7]), this compound came in with a Moderate response of 6. In assay [2], the “ability to interfere with the FIPV virus replication” value was “strongest ability to inhibit FIPV virus replication”.
For `N#C[C@@]1(c2ccc3c(N)ncnn23)O[C@H](CO)[C@@H](O)[C@H]1O` [GS-441524, reference compound], the “Clinical manifestations: treatment time after which the food intake recovered” value in assay [1] (dry FIP group) and in assay [1] (wet FIP group) was “After 3 days of treat-” each time. The Death in assay [1] (setting [4]) is on record as 0; in assay [1] (setting [6]), 1. Moreover, the Moderate response in assay [1] (setting [5]) and in assay [1] (setting [7]) was 3 in each case. Further, the “cats with the FIP in remission” value in assay [3] is on record as “about 60%”.
